A short description of series [1]: Hydration of the solid under air exposure. Conditions: form B from methanol solutions evaporated in an atomizer at room temperature.
For series [2] the following is noted: polymorph A versus polymorph B; as stated in EP-B-0442378; cited from earlier work.
Series [3] in a line: Hydrolytic degradation in mixtures of ketonic or alcoholic solvents and water. Format: physicochemical. Particulars: forms fosinoprilate, increases with time, higher temperature and higher water content. The text has this:
This hydrolytic degradation increases with time and with higher temperature and higher water content of the solvent.

Each structure is given as a SMILES string.

The values below come from patent US20050010054A1, “Preparation of crystalline polymorphs of fosinopril sodium” (priority 2001, published 2005).

In the case of `CCC(=O)O[C@@H](O[P@](=O)(CCCCc1ccccc1)CC(=O)N1C[C@H](C2CCCCC2)C[C@H]1C(=O)[O-])C(C)C.[Na+]` [form B, sodium salt of fosinopril], the “hydration under air exposure” value in series [1] is reported as “spontaneously hydrated under air exposure”.

On to `CCC(=O)O[C@@H](O[P@](=O)(CCCCc1ccccc1)CC(=O)N1C[C@H](C2CCCCC2)C[C@H]1C(=O)[O-])C(C)C.[Na+]` [polymorph A, sodium salt of fosinopril], for which, in series [2], the “relative thermodynamic stability of polymorphs” value is “more stable one from the thermodynamic point of view”.

`CCC(=O)O[C@@H](O[P@](=O)(CCCCc1ccccc1)CC(=O)N1C[C@H](C2CCCCC2)C[C@H]1C(=O)[O-])C(C)C.[Na+]` [sodium fosinopril, sodium salt of fosinopril]: the “hydrolytic stability in solution” value in series [3] is recorded as “undergoes hydrolysis”.
